Values joined by “and” are separate entries in the source; they are usually repeats but may differ in a detail not shown here. Identical values can stand only once.
Tests used:
[1] = target: T1, PKR-R510Q (Homo sapiens, UniProt P30613, R510Q); test: Enzyme assay: activation (rate of ATP formation) by different concentrations, PKR-R510Q; assay type: biochemical; conditions: PEP at or below Km
[2] = target: T2, wt-PKR (Homo sapiens, UniProt P30613); test: Enzyme assay: effect on Vmax and PEP Km, wt-PKR; assay type: biochemical; conditions: 2 μM Compound 1; for Vmax: WT-PKR, normalized to 1.00 relative to other values in the row
T2 sequence (P30613 whole entry): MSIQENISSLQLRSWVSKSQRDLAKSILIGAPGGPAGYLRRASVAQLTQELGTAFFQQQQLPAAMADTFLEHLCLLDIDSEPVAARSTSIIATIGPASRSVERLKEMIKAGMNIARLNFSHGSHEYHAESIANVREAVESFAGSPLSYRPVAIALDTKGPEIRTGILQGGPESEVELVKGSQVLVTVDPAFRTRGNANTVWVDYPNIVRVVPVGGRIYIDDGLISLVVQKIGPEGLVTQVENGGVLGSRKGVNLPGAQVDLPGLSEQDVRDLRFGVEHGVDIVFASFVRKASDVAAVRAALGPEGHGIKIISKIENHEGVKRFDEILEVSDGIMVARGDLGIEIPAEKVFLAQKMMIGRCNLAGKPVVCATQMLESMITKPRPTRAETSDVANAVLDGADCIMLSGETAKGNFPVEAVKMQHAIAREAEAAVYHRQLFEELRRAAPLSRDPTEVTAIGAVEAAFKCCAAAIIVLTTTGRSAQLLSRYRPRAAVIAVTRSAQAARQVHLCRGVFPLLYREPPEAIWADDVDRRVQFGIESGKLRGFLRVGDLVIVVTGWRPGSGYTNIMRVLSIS
Method: (§1) Tests were conducted in the presence and absence of fructose-1,6-bisphosphate (FBP), a known allosteric activator of PKR.

[3] = target: T1, PKR-R510Q; test: Luminescence Assay (Kinase Glo Plus), PKR(R510Q); assay type: biochemical; conditions: 100 μM PEP, 100 μM ADP, read-out: AC50 (PKRR510Q)
Method: For each tested compound, the ability to activate PKR was determined using the following Luminescence Assay. The effect of phosphorylation of adenosine-5′-diphosphate (ADP) by PKR is determined by the Kinase Glo Plus Assay (Promega) in the presence or absence of FBP (D-fructose-1,6-diphosphate; BOC Sciences, CAS: 81028-91-3) as follows. Unless otherwise indicated, all reagents are purchased from Sigma-Aldrich. All reagents are prepared in buffer containing 50 mM Tris-HCl, 100 mM KCl, 5 mM MgCl2, and 0.01% Triton X100, 0.03% BSA, and 1 mM DTT. Enzyme and PEP (phosphoenolpyruvate) are added at 2× to all wells of an assay-ready plate containing serial dilutions of test compounds or DMSO vehicle. Final enzyme concentrations for PKR(wt), PKR(R510Q), and PKR(G332S) are 0.8 nM, 0.8 nM, and 10 nM respectively. Final PEP concentration is 100 μM. The Enzyme/PEP mixture is incubated with compounds for 30 minutes at RT before the assay is initiated with the addition of 2×ADP and KinaseGloPlus. Final concentration of ADP is 100 μM. […] For assays containing FBP, that reagent is added at 30 μM upon reaction initiation. Reactions are allowed to progress for 45 minutes at RT until luminescence is recorded by the BMG PHERAstar FS Multilabel Reader. The compound is tested in triplicate at concentrations ranging from 42.5 μM to 2.2 nM in 0.83% DMSO. […]

[4] = target: T3, PKR (Mus musculus, UniProt P53657); test: PKR activation in mouse red blood cells; assay type: cell-based; conditions: mouse RBCs
T3 construct: Mouse RBCs were isolated fresh from whole blood using a Ficoll gradient; endogenous in cells; host or cells: freshly isolated mouse red blood cells
T3 sequence (P53657 whole entry): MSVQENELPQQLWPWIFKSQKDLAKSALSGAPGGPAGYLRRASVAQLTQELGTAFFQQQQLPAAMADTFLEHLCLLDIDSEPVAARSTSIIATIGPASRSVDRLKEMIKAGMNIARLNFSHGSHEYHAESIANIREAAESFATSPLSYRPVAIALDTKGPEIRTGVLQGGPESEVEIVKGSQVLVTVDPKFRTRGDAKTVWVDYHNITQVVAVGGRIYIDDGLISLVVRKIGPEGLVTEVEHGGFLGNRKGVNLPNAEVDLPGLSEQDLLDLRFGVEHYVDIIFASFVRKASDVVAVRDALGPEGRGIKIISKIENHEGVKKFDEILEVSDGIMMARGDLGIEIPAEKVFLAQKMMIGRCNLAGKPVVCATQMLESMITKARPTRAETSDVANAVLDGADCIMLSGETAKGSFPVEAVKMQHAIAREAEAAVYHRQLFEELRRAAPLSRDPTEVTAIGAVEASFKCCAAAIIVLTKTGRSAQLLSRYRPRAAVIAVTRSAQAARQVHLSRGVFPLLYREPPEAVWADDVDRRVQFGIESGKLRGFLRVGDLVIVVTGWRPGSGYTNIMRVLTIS
Method: (§2) The activation of wt-PKR by Compound 1 in mature human erythrocytes ex vivo was evaluated in purified RBCs purchased from Research Blood Components. Cells treated with Compound 1 for 3 hr in glucose-containing media were washed, lysed, and assayed using a Biovision Pyruvate Kinase Assay (K709-100). The assay was repeated multiple times to account for donor-to-donor variability and the relatively narrow dynamic range.
Mouse RBCs were isolated fresh from whole blood using a Ficoll gradient and assayed with methods similar to those used in the human RBCs assays.

[5] = target: T1, PKR-R510Q; test: Enzyme assay: effect on Vmax and PEP Km, PKR-R510Q; assay type: biochemical; conditions: 2 μM Compound 1; for Vmax: PKR R510Q, normalized to 1.00 relative to other values in the row
Method: as §1

[6] = tested on: healthy volunteers; test: Phase 1 multiple ascending dose (MAD) cohorts, 14 days; assay type: in vivo, human
Text: (§3) This is a first-in-human (FIH), Phase 1 study of Compound 1 that will characterize the safety, PK, and PD of Compound 1 after a single dose and after repeated dosing first in healthy adult volunteers and then in adolescents or adults with sickle cell disease. Initially, a dose range of Compound 1 in single ascending dose (SAD) escalation cohorts will be explored in healthy subjects. Enrollment of healthy subjects into 2-week multiple ascending dose (MAD) escalation cohorts will be initiated once the safety and PK from at least two SAD cohorts is available to inform the doses for the 2-week MAD portion of the study. The MAD cohorts will then run in parallel to the single dose cohorts. A single dose cohort is planned to understand food effects (FE) on the PK of Compound 1. […] Multiple dose studies in SCD subjects will then be initiated upon completion of MAD studies in healthy volunteers. Compound 1 will be administered in 25 mg and 100 mg tablets delivered orally.
(§4) Four healthy SAD cohorts were evaluated at doses of 200, 400, 700, and 1000 mg, and four healthy MAD cohorts received 200 to 600 mg total daily doses for 14 days at QD or BID dosing (100 mg BID, 200 mg BID, 300 mg BID, and 400 mg QD). In the food effect (FE) cohort, 10 healthy subjects received 200 mg of Compound 1 QD with and without food.
In the MAD cohorts, the subjects' blood 2,3-DPG levels were measured periodically after dosing by a qualified LC-MS/MS method for the quantitation of 2,3-DPG in blood. The maximum decrease in 2,3-DPG on Day 14 was 55% from baseline (median). […] Table 16 reports the median percentage change in 2,3-DPG blood levels, relative to baseline, measured over time after the first dose on days 1 and 14 in healthy volunteers who received daily doses of Compound 1 (100 mg BID, 200 mg BID, or 300 mg BID) or placebo for 14 days. Accordingly, the median reduction in the concentration of 2,3-DPG, relative to baseline, was at least about 25% at all dose levels tested 24 hours after administration of the first dose on day 1 and at least about 40% at all dose levels tested 24 hours after administration of the first dose on day 14.
In the MAD cohorts, the subjects' P50 (PO2 at 50% hemoglobin saturation) were determined on day 14. P50 values measured after 14 days of twice daily dosing were reduced at all dose levels tested (median reduction ranged from −3-5 mmHg). Table 17 reports the mean absolute change in P50, relative to baseline, measured on day 14 in healthy volunteers who received daily doses of Compound 1 (100 mg BID, 200 mg BID, or 300 mg BID) or placebo for 14 days.
In the MAD cohorts, the subjects' blood ATP levels were measured on day 14 by a qualified LC-MS/MS method for the quantitation of ATP in blood. […] Table 18 reports the median percentage change in blood ATP levels, relative to baseline, measured over time after the first dose on day 14 in healthy volunteers who received daily doses of Compound 1 (100 mg BID, or 200 mg BID) or placebo for 14 days.
(§5) The following procedures are employed for the analysis of ATP and 2,3-DPG in human whole blood K2EDTA using a protein precipitation extraction procedure and analysis by LC-MS/MS.

[7] = tested on: healthy volunteers; test: Phase 1 single ascending dose (SAD) cohorts; assay type: in vivo, human
Text: as §3, §4
In the SAD cohorts, the subjects' blood 2,3-DPG levels were measured periodically after dosing by a qualified LC-MS/MS method for the quantitation of 2,3-DPG in blood. Decreased 2,3-DPG blood levels were observed 6 hours following a single dose of Compound 1 at all dose levels (earlier timepoints were not collected). Maximum decreases in 2,3-DPG levels generally occurred ˜24 hours after the first dose with the reduction sustained ˜48-72 hr postdose. Table 14 reports the median percentage change in 2,3-DPG blood levels, relative to baseline, measured over time in healthy volunteers after a single dose of Compound 1 (200 mg, 400 mg, 700 mg, or 1000 mg) or placebo. Accordingly, the median reduction in the concentration of 2,3-DPG, relative to baseline, was at least about 30% at all dose levels tested 24 hours after administration of the single dose.
In the SAD cohorts, the subjects' P50 (PO2 at 50% hemoglobin saturation) were determined 24-hours post-dose. P50 measured 24 hours after a single dose of Compound 1 were reduced at all dose levels tested (median reduction ranged from ˜3-5 mmHg). Table 15 reports the mean absolute change in P50, relative to baseline, measured 24 hours after a single dose of Compound 1 (200 mg, 400 mg, 700 mg, or 1000 mg) or placebo in healthy volunteers.
as §5

[8] = tested on: Balb/c mice; test: PK/PD studies in wild type Balb/c mice, oral gavage QD×7; assay type: in vivo
Method: Two pharmacokinetic (PK)/phamacodynamic (PD) studies were conducted in Balb/c mice that were administered Compound 1 once daily by oral gavage (formulated in 10% Cremophor EL/10% PG/80% DI water) for 7 days (QD×7) at doses of 0 (vehicle), 3.75, 7.5, 15, 30, 60 mg/kg (Study 1); 0 (vehicle), 7.5, 15, 30, 60, 120, or 240 mg/kg (Study 2). On the 7th day, whole blood was collected 24 hours after dosing and snap frozen. Samples were later thawed and analyzed by LC/MS for 2,3-DPG and ATP levels.

[9] = tested on: Berkeley SS mouse; test: Berkeley SS mouse model of SCD, 7 days in chow; assay type: in vivo; conditions: 1000 ppm in chow
Text: Targeted gene deletions and a human transgene in the Berkeley SS mouse model result in mice that express human HgbS almost exclusively (Pászty C. Transgenic and gene knock-out mouse models of sickle cell anemia and the thalassemias. Curr Opin Hematol. 1997 March; 4(2):88-93) and mimic the genetic, hematologic, and histopathologic features of SCD in humans. These include irreversibly sickled RBCs, anemia, and multi-organ pathology.
The effects of Compound 1 on Hgb affinity for oxygen, percentage of sickled cells, and/or Hgb were evaluated in the Berkley SS mouse. Two studies were conducted where mice received 0 or 1000 ppm Compound 1 ad libitum in mouse chow for 7 days. Blood was drawn on Day 7 and analyzed under hypoxic conditions. Red cell parameters were measured by ADVIA.

[10] = target: T2, wt-PKR; test: Enzyme assay: activation (rate of ATP formation) by different concentrations, wt-PKR; assay type: biochemical; conditions: PEP at or below Km
[11] = target: T2, wt-PKR; test: PKR activation in mature human erythrocytes ex vivo (Biovision Pyruvate Kinase Assay); assay type: cell-based; parameters: evaluated in purified RBCs purchased from Research Blood Components; host or cells: purified mature human erythrocytes from donors; conditions: human RBCs, 3 hr treatment
Method: as §2

[12] = MAD, all doses and timepoints, N = 36
[13] = SAD, all doses and timepoints, N = 24

T1 sequence (P30613 whole entry R510Q): as the sequence (P30613 whole entry) above, with R510Q counted along it

O=C([C@H](CO)c1ccccc1)N1CC2=C(C1)CN(S(=O)(=O)c1cnc3c(c1)OCCO3)C2 (single isomer, unassigned) [Compound 1]
Maximum-fold Activation [1]: <3.0 fold
Vmax ([2]; 30 μM FBP): 1.16
Vmax ([2]; No FBP): 1.14
Effect on Vmax ([2]; wt-PKR): no effect to a modest increase
Reduction of PEP Km ([2]; wt-PKR, presence or absence of FBP): ~2 fold
AC50 [3]: ≤ 100 nM
Max − Min (%), Mean ([4]; mean of replicates): <100%
Max − Min (%) ([4]; single replicates): <50% and <100%
Vmax ([5]; 30 μM FBP): 1.29
Vmax ([5]; No FBP): 1.56
Effect on Vmax ([5]; PKR-R510Q): no effect to a modest increase
Reduction of PEP Km ([5]; PKR-R510Q, presence or absence of FBP): ~2 fold
PK linearity, multiple doses ([6]; 100-300 mg BID, 400 mg QD): linear PK was observed across all dose levels
Serious adverse events / AEs leading to withdrawal ([6]; MAD cohorts 200-600 mg total daily, 14 days): No serious adverse events (SAEs) or AEs leading to withdrawal were reported
2,3-DPG, Mean Maximum Percent Change from Baseline [6, 12]: −56.3%
ATP, Mean Maximum Percent Change from Baseline [6, 12]: 68.5%
Median reduction of P50 ([6]; after 14 days of twice daily dosing, all dose levels): −3-5 mmHg
Blood ATP levels relative to baseline ([6]; day 14, remained so 60 hours after the last dose): elevated
Exposure over time, multiple doses ([6]; up to day 14): remained steady up to day 14, without cumulative effect
Time of maximum decrease in 2,3-DPG levels after the first dose ([7]; SAD cohorts): ~24 h
Serious adverse events / AEs leading to withdrawal ([7]; SAD cohorts 200-1000 mg): No serious adverse events (SAEs) or AEs leading to withdrawal were reported
2,3-DPG, Mean Maximum Percent Change from Baseline [7, 13]: −46.8%
ATP, Mean Maximum Percent Change from Baseline [7, 13]: 24.4%
Median reduction in the concentration of 2,3-DPG relative to baseline ([7]; all dose levels, 24 hours after single dose): at least 30%
Single dose exposure versus dose ([7]; doses ≥700 mg): increased in greater than dose-proportional manner
Time of pharmacodynamic maximum (minimum of 2,3-DPG concentration) ([7]; single dose 400 mg): ~24 h
Time of pharmacokinetic maximum (maximum of the PK curve) ([7]; single dose 400 mg): 1 to 2 h
Exposure versus dose ([8]; mice, oral): increased in a dose-proportional manner
Adverse clinical signs ([8]; oral QD×7, both studies): No adverse clinical signs were observed
Body weight change ([8]; oral QD×7, both studies): no differences in body weight change compared with the vehicle group
Tolerability ([8]; oral QD×7, up to 240 mg/kg, both studies): well tolerated up to the highest dose tested
Level of reticulocytes [9]: reduced
Oxygen affinity to Hgb under hypoxic conditions [9]: increased
Percentage of RBCs that sickled at low oxygen pressures [9]: decreased
Time to sickle [9]: increased
P50 ([9]; hypoxic conditions): decreased
Maximum-fold Activation [10]: <2.0 fold
EC50 ([11]; mean of replicates): < 125 nM
Max − Min (%) ([11]; single replicates): <125% and <150% and <100% and <50%
